Laboratory results as given in article PMC3875237, “Fragment-based design for the development of N-domain-selective angiotensin-1-converting enzyme inhibitors” (Clinical Science (London, England : 1979), 2013).
Where two headings read alike, the source gives them in different places. Blank lines part the entries; values can stand above or below the compound they belong to.

How the values were obtained:
[1] = biological target: T1, ACE N-domain mutant Y369F (Homo sapiens, UniProt P12821, Y398F); assay: continuous fluorogenic (Abz)-FRK(Dnp)P-OH ACE inhibition assay, N-domain S2 mutant Y369F; type: biochemical
T1 construct: N-domain S2 mutants Y369F, R381E and YR/FE
Procedure: (§1) Parent molecule RXP407 and compound 33RE were dissolved in sterile distilled water to yield stock solutions of 10 mM and subsequently serially diluted in assay buffer (50 mM Hepes, pH 6.8, 200 mM NaCl and 10 μM ZnSO4). Assays were performed on wild-type N-domain, C-domain and N-domain S2 mutants Y369F, R381E and YR/FE as described previously. Briefly, 40 nM enzyme was incubated with an equivolume amount of an appropriate concentration range of phosphinic inhibitor at ambient temperature for 5 min. Enzyme-inhibitor solutions were then divided into aliquotes in triplicate 20 μl volumes followed by the addition of 280 μl of fluorogenic substrate (Abz)-FRK(Dnp)P-OH (in assay buffer) to yield a final substrate concentration of 4 or 8 μM. Residual enzyme activity was monitored continuously at λex=320 nm and λem=420 nm using a fluorescence spectrophotometer (Cary Eclipse, Varian). Initial change of fluorescence over time was converted into arbitrary rate units and inhibitor-binding affinities determined using the Dixon method.
(§2) Assessment of inhibitor potential was carried out using a continuous fluorogenic assay (Abz)-FRK(Dnp)P assay.

[2] = biological target: T2, ACE N-domain (wild-type) (Homo sapiens, UniProt P12821); assay: continuous fluorogenic (Abz)-FRK(Dnp)P-OH ACE inhibition assay, wild-type N-domain; type: biochemical; details: for Fold selectivity Ki (C/N): C-domain Ki / wild-type N-domain Ki
T2 construct: Assays were performed on wild-type N-domain, C-domain and N-domain S2 mutants; made in house; host or cells: CHO (Chinese-hamster ovary) cells
Procedure: as §1, §2

[3] = biological target: T3, ACE N-domain mutant R381E (Homo sapiens, UniProt P12821, R410E); assay: continuous fluorogenic (Abz)-FRK(Dnp)P-OH ACE inhibition assay, N-domain S2 mutant R381E; type: biochemical
T3 construct: N-domain S2 mutants Y369F, R381E and YR/FE
Procedure: as §1, §2

[4] = biological target: T4, ACE N-domain double mutant YR/FE (Homo sapiens, UniProt P12821, R410E/Y398F); assay: continuous fluorogenic (Abz)-FRK(Dnp)P-OH ACE inhibition assay, N-domain S2 double mutant YR/FE; type: biochemical
T4 construct: N-domain S2 mutants Y369F, R381E and YR/FE
Procedure: as §1, §2

[5] = biological target: T2, ACE N-domain (wild-type); design: method as in PMID 10200262; details: N-domain over C-domain; cited from earlier work

T3 sequence (P12821 40-624 R410E): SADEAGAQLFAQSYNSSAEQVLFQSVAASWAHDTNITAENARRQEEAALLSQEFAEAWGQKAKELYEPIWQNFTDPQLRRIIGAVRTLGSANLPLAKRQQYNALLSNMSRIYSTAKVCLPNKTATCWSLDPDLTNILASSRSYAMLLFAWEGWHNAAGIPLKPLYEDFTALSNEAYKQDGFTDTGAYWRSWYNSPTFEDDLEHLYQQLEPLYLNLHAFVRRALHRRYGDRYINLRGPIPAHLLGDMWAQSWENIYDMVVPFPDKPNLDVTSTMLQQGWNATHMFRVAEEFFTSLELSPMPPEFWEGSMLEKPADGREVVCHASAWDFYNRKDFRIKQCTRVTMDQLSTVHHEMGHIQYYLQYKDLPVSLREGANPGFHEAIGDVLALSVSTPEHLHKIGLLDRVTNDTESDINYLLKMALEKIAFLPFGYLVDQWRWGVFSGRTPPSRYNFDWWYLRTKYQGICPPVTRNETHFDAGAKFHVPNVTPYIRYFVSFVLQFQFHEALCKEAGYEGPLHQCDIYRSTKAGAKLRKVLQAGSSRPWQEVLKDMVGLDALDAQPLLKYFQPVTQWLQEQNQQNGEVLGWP
T4 sequence (P12821 40-624 Y398F/R410E): as the sequence (P12821 40-624 R410E) above, with Y359F counted along it
T1 sequence (P12821 40-624 Y398F): as the sequence (P12821 40-624 R410E) above, with Y359F, E371R counted along it
T2 sequence (P12821 40-624 limits assumed): as the sequence (P12821 40-624 R410E) above, with E371R counted along it

SMILES: C[C@H](CP(=O)(O)[C@H](Cc1ccccc1)NC(=O)[C@@H](N)Cc1nnn[nH]1)C(=O)N[C@H](C)C(N)=O [33RE]
Fold selectivity Ki (C/N) ([1]; C-domain Ki / Y369F mutant Ki): 26 fold
Ki ([1]; N-domain mutant Y369F, means±S.E.M.): 404 ± 17.3 nM
decrease in binding affinity compared with wild-type ([1]; Y369F vs wild-type N-domain): 36 fold
Ki [2]: 11.2 ± 0.74 nM
Fold selectivity Ki (C/N) [2]: 927 fold
Fold selectivity Ki (C/N) ([3]; C-domain Ki / R381E mutant Ki): 120 fold
Ki ([3]; N-domain mutant R381E, means±S.E.M.): 87 ± 6.29 nM
decrease in binding affinity compared with wild-type ([3]; R381E vs wild-type N-domain): 8 fold
Fold selectivity Ki (C/N) ([4]; C-domain Ki / YR/FE mutant Ki): 4 fold
Ki ([4]; N-domain double mutant YR/FE, means±S.E.M.): 2790 ± 156 nM
decrease in binding affinity compared with wild-type ([4]; YR/FE vs wild-type N-domain): 250 fold

Fold selectivity Ki (C/N) [2]: 2896 fold
Ki ([2]; wild-type N-domain, Dixon method, means±S.E.M., read-out: Ki): 21 ± 0.27 nM
SMILES: CC(=O)NC(CC(=O)O)C(=O)NC(Cc1ccccc1)P(=O)(O)CC(C)C(=O)NC(C)C(N)=O (centres unmarked) [RXP407, reference compound]
N-selectivity [5]: approximately three orders of magnitude
